From patent US20250230193A1, “CYCLIC COMPOUND HAVING SELECTIVE KRAS INHIBITORY EFFECT ON HRAS AND NRAS” (CHUGAI SEIYAKU KABUSHIKI KAISHA, priority 2022, published 2025)
*1 amine or outer side, *2 acyl side, *3 side chain or, on linkers, in order; H or OH if unused. Where a SMILES comes first, the peptide text is derived from it. Bridges are numbered along the chain shown (N, C = ends). [ ]: non-standard residue; d: D form. The star is where a group is joined. hPhe(3,5-F2-4-CF3) = N[C@@H](CCc1cc(F)c(C(F)(F)F)c(F)c1)C(=O)O; hPhe(3-Cl-4-CF3) = N[C@@H](CCc1ccc(C(F)(F)F)c(Cl)c1)C(=O)O; X28 = C#CCN([C@@H](Cc1ccc(C(F)(F)F)cc1)C(=O)[*:2])[*:1]; NPrPhe(4-CF3) = CCCN[C@@H](Cc1ccc(C(F)(F)F)cc1)C(=O)O; X16 = O=C([C@@H](N[*:1])C1CC(F)(F)C1)[*:2]; NMeGly(cPent) = CN[C@H](C(=O)O)C1CCCC1; NMeD = CN[C@@H](CC(=O)O)C(=O)O; NMeL = CN[C@@H](CC(C)C)C(=O)O; Morpholide = C1CN(*)CCO1; NMeA = CN[C@@H](C)C(=O)O; Ac5c = NC1(C(=O)O)CCCC1; Aze = O=C(O)[C@@H]1CCN1; Sar = CNCC(=O)O

Columns and labels:
[1] = target: GDP-bound HRAS wild-type protein (Homo sapiens, UniProt P01112); assay: Binding to HRAS by surface plasmon resonance (SPR), Single Cycle Kinetics
[2] = target: GDP-bound NRAS wild-type protein (Homo sapiens, UniProt P01111); assay: Binding to NRAS by surface plasmon resonance (SPR), Single Cycle Kinetics
Chain of GDP-bound NRAS wild-type protein (P01111 whole entry): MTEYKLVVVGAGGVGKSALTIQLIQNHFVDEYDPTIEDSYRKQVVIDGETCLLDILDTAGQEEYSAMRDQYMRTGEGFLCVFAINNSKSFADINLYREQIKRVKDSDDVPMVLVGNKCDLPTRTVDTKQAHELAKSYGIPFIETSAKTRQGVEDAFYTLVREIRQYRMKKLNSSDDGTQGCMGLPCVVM

Chain of GDP-bound HRAS wild-type protein (P01112 whole entry): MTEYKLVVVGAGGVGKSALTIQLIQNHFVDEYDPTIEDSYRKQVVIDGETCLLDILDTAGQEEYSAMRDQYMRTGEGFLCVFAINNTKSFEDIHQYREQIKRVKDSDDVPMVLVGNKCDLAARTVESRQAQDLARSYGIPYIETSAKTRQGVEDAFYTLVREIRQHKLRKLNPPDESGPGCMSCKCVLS

CCO[C@@H]1C[C@H]2C(=O)NC3(CCC3)C(=O)N(C)[C@@H](C3CCCC3)C(=O)N(CCC3CCCC3)[C@H](C(=O)N(C)C)CC(=O)N(C)[C@@H](CC)C(=O)N[C@@H]([C@@H](C)CC)C(=O)N(C)CC(=O)N(C)[C@H]3CCCCN(C3=O)[C@@H](Cc3ccc(C(F)(F)F)cc3)C(=O)N(C)CC(=O)N[C@@H](CCc3cc(F)c(C(F)(F)F)c(F)c3)C(=O)N2C1 [PP0646]
HRAS/KRAS (ratio of KD value with respect to GDP-bound HRAS wild-type protein to KD value with respect to KRAS) ([1]; KD ratio HRAS/KRAS, SPR): B (a compound having 3 or more and less than 10 is denoted as B)
NRAS/KRAS (ratio of KD value with respect to GDP-bound NRAS wild-type protein to KD value with respect to KRAS) ([2]; KD ratio NRAS/KRAS, SPR): C (A compound having a KD ratio of 0.1 or more and less than 3 is denoted as C)

CCO[C@@H]1C[C@H]2C(=O)NC3(CCC3)C(=O)N(C)[C@@H](C3CCCC3)C(=O)N(C)[C@H](C(=O)N3CCOCC3)CC(=O)N(C)[C@@H](CC3CCCCC3)C(=O)N[C@@H]([C@@H](C)CC)C(=O)N(C)CC(=O)N(C)[C@H]3CCCCN(C3=O)[C@@H](Cc3ccc(C(F)(F)F)cc3)C(=O)N(C)CC(=O)N[C@@H](CCc3cc(F)c(C(F)(F)F)c(F)c3)C(=O)N2C1 [PP0716]
HRAS/KRAS (ratio of KD value with respect to GDP-bound HRAS wild-type protein to KD value with respect to KRAS) ([1]; KD ratio HRAS/KRAS, SPR): B (a compound having 3 or more and less than 10 is denoted as B)
NRAS/KRAS (ratio of KD value with respect to GDP-bound NRAS wild-type protein to KD value with respect to KRAS) ([2]; KD ratio NRAS/KRAS, SPR): C (A compound having a KD ratio of 0.1 or more and less than 3 is denoted as C)

CCOC[C@H]1C(=O)N[C@@H]([C@@H](C)CC)C(=O)N(C)CC(=O)N(C)[C@H]2C/C=C\CCN(C2=O)[C@@H](Cc2ccc(C(F)(F)F)cc2)C(=O)N(C)CC(=O)N[C@@H](CCc2ccc(C(F)(F)F)c(OC)c2)C(=O)N2C[C@H](OCC)C[C@H]2C(=O)NC2(CC(C)(C)C2)C(=O)N(C)[C@@H](CC(C)(C)C)C(=O)N(C)[C@H](C(=O)N(C)C)CC(=O)N1C [PP2736]
HRAS/KRAS (ratio of KD value with respect to GDP-bound HRAS wild-type protein to KD value with respect to KRAS) ([1]; KD ratio HRAS/KRAS, class symbols): A (a compound having 10 or more and less than 20 is denoted as A)
NRAS/KRAS (ratio of KD value with respect to GDP-bound NRAS wild-type protein to KD value with respect to KRAS) ([2]; KD ratio NRAS/KRAS, class symbols): A (a compound having 10 or more and less than 20 is denoted as A)

CCO[C@@H]1C[C@H]2C(=O)NC3(CC(C)(C)C3)C(=O)N(C)[C@@H](C3CCCC3)C(=O)N(C)[C@H](C(=O)N(C)CC)CC(=O)N(C)[C@H]3CCCC/C=C/c4ccc(cc4)C[C@@H](C(=O)N(C)CC(=O)N[C@@H](CCc4ccc(C(F)(F)F)c(OC)c4)C(=O)N2C1)N1CC/C=C\C[C@@H](C1=O)N(C)C(=O)CN(C)C(=O)[C@H]([C@@H](C)CC)NC3=O [PP1830, (1S,7S,11R,13S,19S,22S,26S,29S,35S,37Z,47E)-19-cyclopentyl-11-ethoxy-N-ethyl-7-[2-[3-methoxy-4-(trifluoromethyl)phenyl]ethyl]-N,3,3′,3′,18,21,25,31,34-nonamethyl-29-[(1S)-1-methylpropyl]-2,5,8,14,17,20,24,27,30,33,55-undecaoxo-spiro[3,6,9,15,18,21,25,28,31,34,41-undecazapentacyclo[24.15.11.2^43,46.1^35,41.0^9,13]pentapentaconta-37,43(54),44,46(53),47-pentaene-16,1′-cyclobutane]-22-carboxamide]
HRAS/KRAS (ratio of KD value for HRAS to KD value for KRAS) ([1]; KD ratio, GDP-bound HRAS wild-type vs GDP-bound KRAS wild-type, SPR): B (a compound having 3 or more and less than 10 is denoted as B)
NRAS/KRAS (ratio of KD value for NRAS to KD value for KRAS) ([2]; KD ratio, GDP-bound NRAS wild-type vs GDP-bound KRAS wild-type, SPR): A (a compound having 10 or more and less than 20 is denoted as A)

CCCN1C(=O)CN(C)C(=O)CN(C)C(=O)[C@H](C2CC(F)(F)C2)NC(=O)[C@H](CC(C)C)N(C)C(=O)C[C@@H](C(=O)N2CCOCC2)N(C)C(=O)[C@H](C2CCCC2)N(C)C(=O)C2(CCCC2)NC(=O)[C@@H]2CCCN2C(=O)[C@H](CCc2cc(F)c(C(F)(F)F)c(F)c2)NC(=O)CN(C)C(=O)[C@@H]1Cc1ccc(C(F)(F)F)cc1 [PP0769] ([NMeL][X16][Sar][Sar][NPrPhe(4-CF3)][Sar][hPhe(3,5-F2-4-CF3)]P[Ac5c][NMeGly(cPent)][NMeD]-Morpholide; lactam N-11)
HRAS/KRAS (ratio of KD value with respect to GDP-bound HRAS wild-type protein to KD value with respect to KRAS) ([1]; KD ratio HRAS/KRAS, SPR): C (A compound having a KD ratio of 0.1 or more and less than 3 is denoted as C)
NRAS/KRAS (ratio of KD value with respect to GDP-bound NRAS wild-type protein to KD value with respect to KRAS) ([2]; KD ratio NRAS/KRAS, SPR): B (a compound having 3 or more and less than 10 is denoted as B)

C#CCN1C(=O)[C@@H]2CCN2C(=O)[C@H](C)N(C)C(=O)[C@H]([C@@H](C)CC)NC(=O)[C@H](CC(C)C)N(C)C(=O)C[C@@H](C(=O)N2CCOCC2)N(C)C(=O)[C@H](C2CCCC2)N(C)C(=O)C2(CCCC2)NC(=O)[C@@H]2CCCN2C(=O)[C@H](CCc2ccc(C(F)(F)F)c(Cl)c2)NC(=O)CN(C)C(=O)[C@@H]1Cc1ccc(C(F)(F)F)cc1 [PP0116] ([NMeL]I[NMeA][Aze][X28][Sar][hPhe(3-Cl-4-CF3)]P[Ac5c][NMeGly(cPent)][NMeD]-Morpholide; lactam N-11)
HRAS/KRAS (ratio of KD for GDP-bound HRAS wild-type to KD for KRAS) ([1]; KD ratio HRAS/KRAS, SPR): C (A compound having a KD ratio of 0.1 or more and less than 3 is denoted as C)
NRAS/KRAS (ratio of KD for GDP-bound NRAS wild-type to KD for KRAS) ([2]; KD ratio NRAS/KRAS, SPR): C (A compound having a KD ratio of 0.1 or more and less than 3 is denoted as C)

CC[C@H](C)[C@@H]1NC(=O)[C@H](COC)N(C)C(=O)C[C@@H](C(=O)N(C)C)N(C)C(=O)[C@H](C2CCCC2)N(C)C(=O)C2(CC(C)(C)C2)NC(=O)[C@@H]2C[C@H](C)CN2C(=O)[C@H](CCc2ccc(C(F)(F)F)c(OC)c2)NC(=O)CN(C)C(=O)[C@H](Cc2ccc(C)cc2)N2CC/C=C\C[C@@H](C2=O)N(C)C(=O)[C@@H]2C[C@H](C)CN2C1=O [PP2386]
HRAS/KRAS (ratio of KD value with respect to HRAS to KD value with respect to KRAS) ([1]; SPR, GDP-bound HRAS wild-type vs GDP-bound KRAS wild-type): B (a compound having 3 or more and less than 10 is denoted as B)
NRAS/KRAS (ratio of KD value with respect to NRAS to KD value with respect to KRAS) ([2]; SPR, GDP-bound NRAS wild-type vs GDP-bound KRAS wild-type): A (a compound having 10 or more and less than 20 is denoted as A)
